Measurements taken from US6541062B2, “Water-soluble soybean extracts” (priority 1999, dated 2003).
In brackets after ≈: the same amount, converted by molar mass.

Experiments:
[1] = solubility in water (stepwise addition of water, visual inspection); type: physicochemical; conditions: 25 °C, thermodynamic from solid
Protocol: A clear water-soluble soybean-based extract (2 liters) obtained in the same manner as described in Example 1. The extract solution was then lyophilized using a lyophilizer manufactured by Bertis Corp for 2 days at −85° C. under 10 mm Torr, resulting in 350 g of a pale yellow dry cake. […] The solubility was tested by first adding 1 g of the dried extract into 1 ml of pure water at 25° C. with agitation for 5 min. If the extract was not completely dissolved (visual inspection), another 1 ml of water was added and the resulting mixture agitated for 5 minutes at 25° C. Next, the mixture was visually inspected to determine if the extract had completely dissolved. If not, water at 25° C. was added in 1 ml increments and agitated for 5 minutes after each addition of water until the extract was completely dissolved by visual inspection. .

solubility in methanol = type: physicochemical; conditions: organic solvent or mixture, 25° C.

O=c1c(-c2ccc(O)cc2)coc2cc(O[C@@H]3O[C@H](CO)[C@@H](O)[C@H](O)[C@H]3O)cc(O)c12 [genistin]
solubility at 5 min [1]: ~1000 µg/mL (≈ 2.31 mM)
solubility (solubility in methanol): ~5000 µg/mL (≈ 11.6 mM)
